Earlier results, collected in patent US5955321A, “Production and use of compositions comprising high concentrations of vitamin B12 activity” (Gist-Brocades, priority 1996, dated 1999).

Details: for stability to light: in isolated form

Compound	stability in aqueous solution	stability to light
C/C1=C2/[N-][C@H]([C@H](CC(N)=O)[C@@]2(C)CCC(=O)NC[C@@H](C)OP(=O)([O-])O[C@H]2[C@@H](O)[C@@H](n3cnc4cc(C)c(C)cc43)O[C@@H]2CO)[C@]2(C)N=C(/C(C)=C3N=C(/C=C4N=C1[C@@H](CCC(N)=O)C\4(C)C)[C@@H](CCC(N)=O)[C@]\3(C)CC(N)=O)[C@@H](CCC(N)=O)[C@]2(C)CC(N)=O.[CH3-].[Co+3] [methylcobalamin]	easily transformed to hydroxocobalamin	unstable to light
5'desoxyadenosylcobalamin	easily transformed to hydroxocobalamin	unstable to light
